Common to all, as to type: in vivo, mouse
One test concerns VEGFR3. Put plainly: VEGF receptor expression on dendritic and endothelial cells, FACS. The settings on record: Tg+ mice, pretreatment-2 week protocol. As to the method: (§1) Cell preparations were obtained from Tg− and Tg+ mice that had been randomized to receive Poly(I:C) or its vehicle control according to the pretreatment-2 week protocol described above. They were then incubated with antibodies against CD45, CD11c, MHCII, CD31, VEGFR1 (R & D Systems), VEGFR2 (Biolegends, San Diego, Calif. USA) or VEGFR3 (R&D Systems). FACS analysis was used to define the levels of receptor expression on dendritic cells (CD45+, CD11c+, MHCII+) and endothelial cells (CD45−, CD31+).

The next test deals with VEGFR1. The test is described as above. The settings on record: Tg+ mice, pretreatment-2 week protocol. The protocol:
as §1

The test system of another test is VEGFR2. Described as above. The settings on record: Tg+ mice, pretreatment-2 week protocol. The protocol: as §1
For another test, the system named is MAVS. Kind of test: Poly(I:C) effects in MAVS null mice. The text has this: TLR3^−/−-mice were a gift from Dr. Richard A. Flavell (Yale University), MAVS null mice were a gift from Dr Zijian J. Chen (U of Texas Southwestern) (Sun et al., 2006, Immunity 24:633-642), double stranded RNA-dependent protein kinase null mutant mice (PKR^−/−) were a gift from Dr. Bryan R. G. Williams (Cleveland Clinic Foundation) (Yang et al., 1995, Embo J 14:6095-6106) and IFNAR1 null mice were obtained from Dr. Richard Enelow (Dartmouth). These mice were bred with the VEGF Tg+ mice to generate transgenic mice with wild type (+/+) or null (−/−) TLR3, MAVS, PKR or IFNAR1 loci. Thus, in each given experiment, the effects in transgene negative (Tg−) and transgenic (Tg+) mice with WT and null TLR3, MAVS, PKR or IFNAR1 loci were compared.
(§2) To define the effects of Poly(I:C) a number of protocols were employed. In most experiments, a pretreatment-2 week protocol was employed. In these experiments, WT and Tg+ mice were treated with Poly(I:C) (30 μg in 50 lambda unless otherwise indicated; Amersham Biosciences, N.J.) or vehicle control via nasal aspiration and transgene activation was accomplished via the administration of dox (0.5 mg/ml) in the animal's drinking water 24 hours later. The Poly(I:C) was administered every other day and the dox was administered continuously for up to 2 weeks.
OVA sensitization (with alum) and aerosol OVA challenge were undertaken as previously described (Lee et al., 2008, Am J Respir Cell Mol Biol 39:739-746; Lee et al., 2009, J Exp Med 206:1149-1166). The responses in mice that had been treated with Poly(I:C) or vehicle 24 hours before the aerosol challenge were compared. The BAL and tissue responses were evaluated 24 hours after antigen challenge.

A further test relates to transgenic hVEGF. Kind of test: BAL levels of transgenic VEGF by ELISA. The settings on record: Tg+ mice, Poly(I:C) vs vehicle; doses <30 μg.
From the text: WT and CC10-rtTA-VEGF mice were used in these studies. The latter used the Clara cell 10-kDa protein (CC10) promoter and two transgenic constructs to target VEGF to the lung in an externally regulatable fashion. The human (h) VEGF165 transgene in these mice was activated via the administration of doxycycline (dox) as previously described (Lee et al., 2004, Nat Med 10:1095-1103). In the wild type (WT) mice on normal or dox water and the Tg+ mice on normal water, hVEGF levels in bronchoalveolar lavage fluids (BAL) were <10 pg/ml. Increased levels of BAL VEGF were noted within 24 hours and steady state levels between 0.5 and 1.2 ng/ml were seen after 1 week of dox administration (FIG. 28).
as §2
ELISA assay kits for VEGF and IL-13 were purchased from R&D Systems (Minneapolis, Minn.).
A general note: ELISA stands for enzyme-linked immunosorbent assay.

For test [1], the system named is CC10-rtTA-VEGF165 transgenic mice. Kind of test: VEGF-induced vascular permeability (Evans blue dye extravasation, lung wet to dry weight ratio, BAL protein). The protocol:
as §2
Lastly, in selected experiments post-transgene activation protocols were employed. In these experiments dox was administered for 2 days or 2 weeks. The Poly(I:C) was then administered via intranasal aspiration every other day for 2 weeks as disclosed elsewhere herein. In selected pre-treatment and post-transgene activation experiments, unmethylated CpG (CpG-B) (Keck Center, Yale University) was also employed at similar doses. At the end of these intervals, assessments of angiogenesis (anti-CD31 immunohistochemistry), vascular permeability (Evan's blue dye extravasation, wet to dry lung weight measurements, BAL protein concentration), BAL and tissue inflammatory cell infiltration and mucus metaplasia (periodic acid-Schiff (PAS) staining, MUC5AC immunoblotting) were undertaken. In all cases experiments were designed to compare Tg− and Tg+ mice on normal water and Tg− and Tg+ mice on dox water.
Lungs were excised en bloc and extrapulmonary tissues were removed. They were then weighed, placed in a desiccating oven at 65° C. for 48 hours and reweighed.
In some instances, animal lungs were excised en bloc after intravascular perfusion and weighed. They were then put into a SpeedVac system (ThermoSavant; Milford, Mass.), desiccated at 60° C. overnight, and reweighed.
Evans blue dye (EBD) (Sigma-Aldrich Inc.) in 0.9% saline at a concentration of 5 mg/ml was used to assess plasma leakage as previously described (Lee et al., 2004, Nat Med 10:1095-1103). The results are expressed as the ratio of the EBD absorbance at 620 nm of paired lung homogenates and serum.
BAL was undertaken and protein levels were assessed using the Dc Protein Assay Kit (Bio-Rad Laboratories, Hercules, Calif.) according to manufacturer's instructions. The optical density of each sample was read at 750 nm wave length with a Smartspec 3000 Spectrophotometer (Bio-Rad Laboratories).

A further test has as its system IFN-α and IFN-β. Put plainly: BAL Type I IFNs by ELISA. The settings on record: WT (Tg−) and VEGF Tg+ animals. As to the method:
(§3) ELISA and activity assay kits for IFNa and IFNβ analysis were purchased from PBL Biomedical Laboratories (Piscataway, N.J.). ELISAs for eotaxin/CCL11, MCP-1/CCL2, KC/CXCL1 and MIP-2/CXCL14 were obtained from R&D Systems (Minneapolis, Minn. USA). Each was performed according to the manufacturer's instructions.

Test [2] relates to KC/CXCL1 and MIP-2/CXCL14. Put plainly: BAL neutrophil chemotactic chemokines by ELISA. The settings on record: Tg+ mice, pretreatment, 2 weeks. The protocol:
as §3

Where [3] appears, read: Tg+ mice, pretreatment, vs vehicle.

“polyinosinic-polycytidylic acid [Poly(I:C)]”: the “expression of VEGFR3 on dendritic cells and endothelial cells” value with VEGFR3 is “not”. Moreover, the “expression of VEGFR1 on dendritic cells and endothelial cells” value in the test with VEGFR1 is recorded as “inhibited”. Besides, the “expression of VEGFR2 on dendritic cells and endothelial cells” value with VEGFR2 is “not”. In the test on MAVS (30 μg pretreatment, 2 weeks), the “ability to inhibit VEGF-induced angiogenic, edema, inflammatory and mucus responses in MAVS deficient animals” value is given as “abrogated”. For the same substance, the “induction of Type I IFNs in mice with null MAVS loci” value in the test with MAVS (BAL IFN-α and IFN-β) is given as “significantly ameliorated”. For the same substance, the “inhibitory effects on OVA-induced inflammation in MAVS null animals” value in the test on MAVS (OVA sensitization and challenge) is “abrogated”. For the same substance, the “levels of production of transgenic VEGF in BAL fluids” value with transgenic hVEGF is reported as “did not alter”. Besides, in test [1] (setting [3]), the “Evan's blue dye leakage in lungs” value was “lower levels”; the “VEGF-induced permeability alterations (Evans blue dye extravasation, lung wet to dry weight ratios, BAL protein)” value is listed as “inhibited”; the “levels of protein in BAL fluids” value is “lower levels”. In addition, the “VEGF-induced vascular permeability alterations, delayed administration” value in test [1] (given 48 hours or 14 days after dox-induced transgene activation) is recorded as “significant inhibition”. For the same substance, the “lowest dose with significant inhibition of VEGF-induced permeability alterations” value in test [1] (pretreatment) turned out to be 5 µg. Moreover, the “dose with maximal inhibition of VEGF-induced permeability alterations” value in test [1] (pretreatment, highest dose tested) was 30 µg. In addition, the “production of IFN-α and IFN-β in BAL” value in the test with IFN-α and IFN-β is given as “potent stimulator”. The “levels of KC/CXCL1 and MIP-2/CXCL14 in BAL” value in test [2] is given as “significant increases”.

The record behind these values is patent publication US20110245323A1, “RIG-Like Helicase Innate Immunity Inhibits VEGF-Induced Tissue Responses” (Yale University, priority 2006, published 2011).
